Assay results published in publication PMC4389368, “Sarmentine, a natural herbicide from Piper species with multiple herbicide mechanisms of action” (Frontiers in Plant Science, 2015).

What was measured:
[1] = tested on: T1, photosystem II QB protein (D1); assay: oxygen evolution in isolated thylakoid membranes; format: biochemical, Amaranthus retroflexus
T1 construct: gene psbA; isolated thylakoid membranes, wild-type; with photosystem II complex

[2] = biological target: T2, enoyl-ACP reductase (ENR) (Arabidopsis thaliana, UniProt Q9SLA8); assay: NADH oxidation (A340) with purified recombinant enzyme; format: biochemical
T2 construct: gene MOD1
T2 sequence (Q9SLA8 75-390): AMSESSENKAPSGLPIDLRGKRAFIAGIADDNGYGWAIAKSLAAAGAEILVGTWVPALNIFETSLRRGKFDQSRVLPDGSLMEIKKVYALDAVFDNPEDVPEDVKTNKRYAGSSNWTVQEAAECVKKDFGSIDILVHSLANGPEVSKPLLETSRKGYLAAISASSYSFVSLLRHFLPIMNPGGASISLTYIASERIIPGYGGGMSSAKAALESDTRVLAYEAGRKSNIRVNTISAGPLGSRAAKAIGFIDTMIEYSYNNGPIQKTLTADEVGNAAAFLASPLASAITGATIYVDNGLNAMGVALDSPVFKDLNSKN

[3] = biological target: T3, photosystem II QB protein (D1) (Spinacia oleracea, UniProt P69560); assay: […]-atrazine displacement on spinach thylakoid membranes; format: binding
T3 construct: gene psbA; isolated thylakoid membranes; with photosystem II complex

| Structure (SMILES) | IC50 [1] [nM] | IC50 [2] [µM] | Ki [3] [nM] |
| --- | --- | --- | --- |
| CCNc1nc(Cl)nc(NC(C)C)n1 [atrazine] | 600 |  |  |
| CCCCC/C=C/C=C/C(=O)N1CCCC1 [Sarmentine, 1-(1-pyrrolidinyl)-(2E,4E)-2,4-decadien-1-one] | 1720 | 18.3 | 1500 |
